Test system: HCV type 1b replicon in Huh-7 luc/neo (Huh-Luc) cells
Assay: HCV replicon assay (Huh-Luc, luciferase readout)
Type: cell-based
Details: Hepatitis C virus, Huh-7, 72 h, luciferase activity, incubation of three days, read-out: HCV-REP-HUH7LUC_EC50
From the text: The compounds of formula (I) were examined for inhibitory activity in the HCV replicon. This cellular assay is based on a bicistronic expression construct, as described by Lohmann et al. (1999) Science vol. 285 pp. 110-113 with modifications described by Krieger et al. (2001) Journal of Virology 75: 4614-4624, in a multi-target screening strategy.
In essence, the method was as follows:
The assay utilized the stably transfected cell line Huh-7 luc/neo (hereafter referred to as Huh-Luc). This cell line harbors an RNA encoding a bicistronic expression construct comprising the wild type NS3-NS5B regions of HCV type 1b translated from an Internal Ribosome Entry Site (IRES) from encephalomyocarditis virus (EMCV), preceded by a reporter portion (FfL-luciferase), and a selectable marker portion (neo^R, neomycine phosphotransferase). The construct is flanked by 5′ and 3′ NTRs (non-translated regions) from HCV type 1b. Continued culture of the replicon cells in the presence of G418 (neo^R) is dependent on the replication of the HCV RNA. The stably transfected replicon cells that express HCV RNA, which replicates autonomously and to high levels, encoding inter alia luciferase, were used for screening the antiviral compounds.
The replicon cells were plated in 384 well plates in the presence of the test and control compounds which were added in various concentrations. Following an incubation of three days, HCV replication was measured by assaying luciferase activity (using standard luciferase assay substrates and reagents and a Perkin Elmer ViewLux™ ultraHTS microplate imager). Replicon cells in the control cultures have high luciferase expression in the absence of any inhibitor. The inhibitory activity of the compound on luciferase activity was monitored on the Huh-Luc cells, enabling a dose-response curve for each test compound. EC50 values were then calculated, which represent the amount of compound required to decrease the level of detected luciferase activity by 50%, or more specifically, to reduce the ability of the genetically linked HCV replicon RNA to replicate.

Q: For `CN(C)[C@@H](C(=O)N1CCC[C@H]1c1nc2ccc(-c3ccc(-c4ccc5nc([C@@H]6CCCN6C(=O)[C@@H](c6ccccc6)N(C)C)[nH]c5c4)cc3)cc2[nH]1)c1ccccc1` [Compound 36], which EC50 is on record?
A: 0.073 nM

Q: With `CCC(=O)N[C@H](C(=O)N1CCC[C@H]1c1nc2ccc(-c3ccc(-c4ccc5nc([C@@H]6CCCN6C(=O)[C@@H](NC(=O)CC)C(C)C)[nH]c5c4)cc3)cc2[nH]1)C(C)C` [Compound 53] as the molecule, how does the EC50 read?
A: 4 nM

Q: With `O=C(c1ccoc1)N1CCC[C@H]1c1nc2ccc(-c3ccc(-c4ccc5nc([C@@H]6CCCN6C(=O)c6ccoc6)[nH]c5c4)cc3)cc2[nH]1` [Compound 21] as the molecule, how does the EC50 read?
A: 58 nM

Q: With `O=C([C@@H](c1ccccc1)N1CCCCC1)N1CCC[C@H]1c1nc2ccc(-c3ccc(-c4ccc5nc([C@@H]6CCCN6C(=O)[C@@H](c6ccccc6)N6CCCCC6)[nH]c5c4)cc3)cc2[nH]1` [Compound 20] as the molecule, how does the EC50 read?
A: 0.061 nM

Q: `O=C(C(c1ccccc1)n1ccnc1)N1CCC[C@H]1c1nc2ccc(-c3ccc(-c4ccc5nc([C@@H]6CCCN6C(=O)C(c6ccccc6)n6ccnc6)[nH]c5c4)cc3)cc2[nH]1` (stereo partly shown) [Compound 19] was tested. Which EC50 did it give?
A: 0.45 nM

Q: Which EC50 does the source give for `O=C(CCc1cccnc1)N1CCC[C@H]1c1nc2ccc(-c3ccc(-c4ccc5nc([C@@H]6CCCN6C(=O)CCc6cccnc6)[nH]c5c4)cc3)cc2[nH]1` [Compound 13] here?
A: 0.5 nM

Q: How did the EC50 turn out when `COc1cccc(CCC(=O)N2CCC[C@H]2c2nc3ccc(-c4ccc(-c5ccc6nc([C@@H]7CCCN7C(=O)CCc7cccc(OC)c7)[nH]c6c5)cc4)cc3[nH]2)c1` [Compound 6] was run?
A: 500 nM

Q: Which EC50 does the source give for `CCN(CC)[C@@H](C(=O)N1CCC[C@H]1c1nc2ccc(-c3ccc(-c4ccc5nc([C@@H]6CCCN6C(=O)[C@@H](c6ccccc6)N(CC)CC)[nH]c5c4)cc3)cc2[nH]1)c1ccccc1` [Compound 17] here?
A: 0.03 nM

Q: How did the EC50 turn out when `O=C(C(c1ccccc1)N1CCCC(F)(F)C1)N1CCC[C@H]1c1nc2ccc(-c3ccc(-c4ccc5nc([C@@H]6CCCN6C(=O)C(c6ccccc6)N6CCCC(F)(F)C6)[nH]c5c4)cc3)cc2[nH]1` (mixture of isomers) [Compound 44] was run?
A: 0.22 nM

Q: With `CC(C)(C)OC(=O)N[C@@H](C(=O)N1CCC[C@H]1c1nc2ccc(-c3ccc(-c4ccc5nc([C@@H]6CCCN6C(=O)[C@H](NC(=O)OC(C)(C)C)c6ccccc6)[nH]c5c4)cc3)cc2[nH]1)c1ccccc1` [Compound 38] as the molecule, how does the EC50 read?
A: 0.014 nM

Q: For `O=C([C@H](O)c1ccccc1)N1CCC[C@H]1c1nc2ccc(-c3ccc(-c4ccc5nc([C@@H]6CCCN6C(=O)[C@H](O)c6ccccc6)[nH]c5c4)cc3)cc2[nH]1` [Compound 34], which EC50 is on record?
A: 0.0037 nM

Q: Which EC50 does the source give for `O=C([C@@H](O)c1ccccc1)N1CCC[C@H]1c1nc2ccc(-c3ccc(-c4ccc5nc([C@@H]6CCCN6C(=O)[C@@H](O)c6ccccc6)[nH]c5c4)cc3)cc2[nH]1` [Compound 7] here?
A: 0.057 nM

Q: For `CN(C)C(C(=O)N1CCC[C@H]1c1nc2ccc(-c3ccc(-c4ccc5nc([C@@H]6CCCN6C(=O)C(c6ccc(Cl)cc6)N(C)C)[nH]c5c4)cc3)cc2[nH]1)c1ccc(Cl)cc1` (stereo partly shown) [Compound 5], which EC50 is on record?
A: 0.59 nM

Q: Which EC50 does the source give for `COC(=O)NC1(C(=O)N2CCC[C@H]2c2nc3ccc(-c4ccc(-c5ccc6nc([C@@H]7CCCN7C(=O)C7(NC(=O)OC)CC7)[nH]c6c5)cc4)cc3[nH]2)CC1` [Compound 9] here?
A: 1 nM

Q: `O=C(C(=O)N1CCC[C@H]1c1nc2ccc(-c3ccc(-c4ccc5nc([C@@H]6CCCN6C(=O)C(=O)c6ccccc6)[nH]c5c4)cc3)cc2[nH]1)c1ccccc1` [Compound 15] was tested. Which EC50 did it give?
A: 40 nM

Q: For `O=C([C@@H](c1ccccc1)N1CCOCC1)N1CCC[C@H]1c1nc2ccc(-c3ccc(-c4ccc5nc([C@@H]6CCCN6C(=O)[C@@H](c6ccccc6)N6CCOCC6)[nH]c5c4)cc3)cc2[nH]1` [Compound 46], which EC50 is on record?
A: 0.022 nM

Q: For `O=C(c1ccccn1)N1CCC[C@H]1c1nc2ccc(-c3ccc(-c4ccc5nc([C@@H]6CCCN6C(=O)c6ccccn6)[nH]c5c4)cc3)cc2[nH]1` [Compound 25], which EC50 is on record?
A: 1.7 nM

Q: For `O=C(Cc1ccccc1)N1CCC[C@H]1c1nc2ccc(-c3ccc(-c4ccc5nc([C@@H]6CCCN6C(=O)Cc6ccccc6)[nH]c5c4)cc3)cc2[nH]1` [Compound 1], which EC50 is on record?
A: 0.1 nM

Q: How did the EC50 turn out when `COC(=O)N[C@H](C(=O)N1CCC[C@H]1c1nc2cc(-c3ccc(-c4ccc5nc([C@@H]6CCCN6C(=O)[C@@H](NC(=O)OC)C6CC6)[nH]c5c4)cc3)ccc2[nH]1)C1CC1` [Compound 40] was run?
A: 0.014 nM

Q: How did the EC50 turn out when `O=C(c1ccc(F)cc1)N1CCC[C@H]1c1nc2ccc(-c3ccc(-c4ccc5nc([C@@H]6CCCN6C(=O)c6ccc(F)cc6)[nH]c5c4)cc3)cc2[nH]1` [Compound 27] was run?
A: 240 nM

Q: For `COC(=O)N[C@@H](C(=O)N1CCCC1c1nc2ccc(-c3ccc(-c4ccc5nc([C@@H]6CCCN6C(=O)[C@H](NC(=O)OC)c6ccccc6)[nH]c5c4)cc3)cc2[nH]1)c1ccccc1` (stereo partly shown) [Compound 39], which EC50 is on record?
A: 0.0067 nM

Q: For `O=C([C@H](O)c1ccccc1Cl)N1CCC[C@H]1c1nc2ccc(-c3ccc(-c4ccc5nc([C@@H]6CCCN6C(=O)[C@H](O)c6ccccc6Cl)[nH]c5c4)cc3)cc2[nH]1` [Compound 48], which EC50 is on record?
A: 0.011 nM

Q: Which EC50 does the source give for `O=C(C(Nc1ccccc1)c1ccc(Cl)cc1)N1CCC[C@H]1c1nc2ccc(-c3ccc(-c4ccc5nc([C@@H]6CCCN6C(=O)C(Nc6ccccc6)c6ccc(Cl)cc6)[nH]c5c4)cc3)cc2[nH]1` (mixture of isomers) [Compound 47] here?
A: 1.5 nM

Q: Which EC50 does the source give for `COCC[C@H](NC(=O)OC)C(=O)N1CCC[C@H]1c1nc2ccc(-c3ccc(-c4ccc5nc([C@@H]6CCCN6C(=O)[C@H](CCOC)NC(=O)OC)[nH]c5c4)cc3)cc2[nH]1` [Compound 51] here?
A: 0.012 nM

Q: Which EC50 does the source give for `COC(=O)NC(C(=O)N1CCC[C@H]1c1nc2ccc(-c3ccc(-c4ccc5nc([C@@H]6CCCN6C(=O)C(NC(=O)OC)C6CCOCC6)[nH]c5c4)cc3)cc2[nH]1)C1CCOCC1` (mixture of isomers) [Compound 55] here?
A: 0.18 nM

Q: How did the EC50 turn out when `COC(=O)N[C@@H](C(=O)N1CCC[C@H]1c1nc2ccc(-c3ccc(-c4ccc5nc([C@@H]6CCCN6C(=O)[C@H](NC(=O)OC)C(C)C)[nH]c5c4)cc3)cc2[nH]1)C(C)C` [Compound 32] was run?
A: 6.9 nM

Q: With `COc1c(F)cc(CC(=O)N2CCC[C@H]2c2nc3ccc(-c4ccc(-c5ccc6nc([C@@H]7CCCN7C(=O)Cc7cc(F)c(OC)c(F)c7)[nH]c6c5)cc4)cc3[nH]2)cc1F` [Compound 10] as the molecule, how does the EC50 read?
A: 130 nM

Q: With `CN(C)CCC(=O)N1CCC[C@H]1c1nc2ccc(-c3ccc(-c4ccc5nc([C@@H]6CCCN6C(=O)CCN(C)C)[nH]c5c4)cc3)cc2[nH]1` [Compound 18] as the molecule, how does the EC50 read?
A: 49 nM

Q: With `O=C(c1cccnc1)N1CCC[C@H]1c1nc2ccc(-c3ccc(-c4ccc5nc([C@@H]6CCCN6C(=O)c6cccnc6)[nH]c5c4)cc3)cc2[nH]1` [Compound 31] as the molecule, how does the EC50 read?
A: 280 nM

Q: How did the EC50 turn out when `CC(=O)N[C@@H](C(=O)N1CCC[C@H]1c1nc2ccc(-c3ccc(-c4ccc5nc([C@@H]6CCCN6C(=O)[C@H](NC(C)=O)c6ccccc6)[nH]c5c4)cc3)cc2[nH]1)c1ccccc1` [Compound 4] was run?
A: 0.18 nM

Q: `O=C([C@H]1CCCO1)N1CCC[C@H]1c1nc2ccc(-c3ccc(-c4ccc5nc([C@@H]6CCCN6C(=O)[C@H]6CCCO6)[nH]c5c4)cc3)cc2[nH]1` [Compound 3] was tested. Which EC50 did it give?
A: 20 nM

Q: For `CC(C)[C@H](O)C(=O)N1CCC[C@H]1c1nc2ccc(-c3ccc(-c4ccc5nc([C@@H]6CCCN6C(=O)[C@@H](O)C(C)C)[nH]c5c4)cc3)cc2[nH]1` [Compound 33], which EC50 is on record?
A: 110 nM

Q: `CCOC(=O)N[C@H](C(=O)N1CCC[C@H]1c1nc2ccc(-c3ccc(-c4ccc5nc([C@@H]6CCCN6C(=O)[C@@H](NC(=O)OCC)C(C)C)[nH]c5c4)cc3)cc2[nH]1)C(C)C` [Compound 41] was tested. Which EC50 did it give?
A: 17 nM

Q: For `CCN(C1CC1)[C@@H](C(=O)N1CCC[C@H]1c1nc2ccc(-c3ccc(-c4ccc5nc([C@@H]6CCCN6C(=O)[C@@H](c6ccccc6)N(CC)C6CC6)[nH]c5c4)cc3)cc2[nH]1)c1ccccc1` [Compound 42], which EC50 is on record?
A: 0.063 nM

Q: With `O=C(C(c1ccccc1)N1C2CCC1CC2)N1CCC[C@H]1c1nc2ccc(-c3ccc(-c4ccc5nc([C@@H]6CCCN6C(=O)C(c6ccccc6)N6C7CCC6CC7)[nH]c5c4)cc3)cc2[nH]1` (mixture of isomers) [Compound 43] as the molecule, how does the EC50 read?
A: 3.2 nM

Q: With `O=C([C@H](O)c1cccc(Cl)c1)N1CCC[C@H]1c1nc2ccc(-c3ccc(-c4ccc5nc([C@@H]6CCCN6C(=O)[C@H](O)c6cccc(Cl)c6)[nH]c5c4)cc3)cc2[nH]1` [Compound 49] as the molecule, how does the EC50 read?
A: 0.027 nM

Q: With `O=C(Cc1cccnc1)N1CCC[C@H]1c1nc2ccc(-c3ccc(-c4ccc5nc([C@@H]6CCCN6C(=O)Cc6cccnc6)[nH]c5c4)cc3)cc2[nH]1` [Compound 12] as the molecule, how does the EC50 read?
A: 0.15 nM

Q: With `O=C(Cc1ccc2c(c1)OCO2)N1CCC[C@H]1c1nc2ccc(-c3ccc(-c4ccc5nc([C@@H]6CCCN6C(=O)Cc6ccc7c(c6)OCO7)[nH]c5c4)cc3)cc2[nH]1` [Compound 16] as the molecule, how does the EC50 read?
A: 69 nM

Q: For `O=C(CCc1ccccc1F)N1CCC[C@H]1c1nc2ccc(-c3ccc(-c4ccc5nc([C@@H]6CCCN6C(=O)CCc6ccccc6F)[nH]c5c4)cc3)cc2[nH]1` [Compound 8], which EC50 is on record?
A: 160 nM

Q: With `O=C(C(O)Cc1cccnc1)N1CCC[C@H]1c1nc2ccc(-c3ccc(-c4ccc5nc([C@@H]6CCCN6C(=O)C(O)Cc6cccnc6)[nH]c5c4)cc3)cc2[nH]1` (mixture of isomers) [Compound 35] as the molecule, how does the EC50 read?
A: 22 nM

Source: patent US8623899B2, “Bis-benzimidazole derivatives as hepatitis C virus inhibitors” (Janssen Research & Development Ireland, priority 2009, dated 2014)
